Measured values: the NIST ThermoML archive (doi:10.1016/j.jct.2010.12.028)
± gives the expanded uncertainty stated by the source.

What was measured:
[1] = xn = mol fraction of the nth substance listed; conditions: 101 kPa, Liquid; for speed of sound: Sing-around technique in a fixed-path interferometer; for mass density: Vibrating tube method
[2] = excess molar enthalpy (molar enthalpy of mixing); xn = mol fraction of the nth substance listed; conditions: 308.15 K, 101 kPa, Liquid

Cc1ccncc1 [4-methylpyridine] + Cc1ccccc1N
[1]
Conditions	mass density, 298.15 K [kg/m3]	mass density, 303.15 K [kg/m3]	mass density, 308.15 K [kg/m3]	speed of sound, 298.15 K [m/s]	speed of sound, 303.15 K [m/s]	speed of sound, 308.15 K [m/s]
x2 = 0.0525	953.707 ± 0.24	949.033 ± 0.24	944.539 ± 0.24	1440.5 ± 2.3	1419.5 ± 2.3	1399.3 ± 2.3
x2 = 0.1236	958.201 ± 0.24	953.635 ± 0.24	949.213 ± 0.24	1452.6 ± 2.3	1431.8 ± 2.3	1412.2 ± 2.3
x2 = 0.1357	958.939 ± 0.24	954.384 ± 0.24	949.974 ± 0.24	1454.8 ± 2.3	1433.9 ± 2.3	1414.4 ± 2.3
x2 = 0.1839	961.774 ± 0.24	957.264 ± 0.24	952.886 ± 0.24	1463.1 ± 2.3	1442.5 ± 2.3	1423.2 ± 2.3
x2 = 0.2328	964.507 ± 0.24	960.045 ± 0.24	955.673 ± 0.24	1471.4 ± 2.3	1451.2 ± 2.3	1432.1 ± 2.3
x2 = 0.2655	966.252 ± 0.24	961.821 ± 0.24	957.455 ± 0.24	1477.1 ± 2.3	1457 ± 2.3	1438.1 ± 2.3
x2 = 0.3023	968.154 ± 0.24	963.746 ± 0.24	959.382 ± 0.24	1483.4 ± 2.3	1463.5 ± 2.3	1444.7 ± 2.3
x2 = 0.3539	970.688 ± 0.24	966.314 ± 0.24	961.964 ± 0.24	1492.2 ± 2.4	1472.7 ± 2.3	1453.9 ± 2.3
x2 = 0.4133	973.431 ± 0.24	969.1 ± 0.2	964.753 ± 0.24	1502.4 ± 2.4	1483 ± 2.3	1464.4 ± 2.3
x2 = 0.4863	976.578 ± 0.24	972.285 ± 0.24	967.972 ± 0.24	1514.7 ± 2.4	1495.5 ± 2.4	1476.8 ± 2.3
x2 = 0.5256	978.183 ± 0.24	973.912 ± 0.24	969.611 ± 0.24	1521.3 ± 2.4	1501.9 ± 2.4	1483.2 ± 2.3
x2 = 0.5671	979.804 ± 0.24	975.56 ± 0.24	971.274 ± 0.24	1528.2 ± 2.4	1508.7 ± 2.4	1490 ± 2.3
x2 = 0.6272	982.039 ± 0.24	977.832 ± 0.24	973.587 ± 0.24	1538.3 ± 2.4	1518.4 ± 2.4	1499.7 ± 2.3
x2 = 0.6963	984.487 ± 0.24	980.309 ± 0.24	976.116 ± 0.24	1549.8 ± 2.4	1529.2 ± 2.4	1510.4 ± 2.4
x2 = 0.7674	986.874 ± 0.24	982.738 ± 0.24	978.601 ± 0.24	1561.7 ± 2.4	1540.2 ± 2.4	1521.3 ± 2.4
x2 = 0.8234	988.699 ± 0.24	984.584 ± 0.24	980.475 ± 0.24	1571.2 ± 2.4	1548.8 ± 2.4	1530 ± 2.4
x2 = 0.8657	990.061 ± 0.24	985.955 ± 0.24	981.851 ± 0.24	1578.4 ± 2.4	1555.4 ± 2.4	1536.6 ± 2.4
x2 = 0.9537	992.867 ± 0.24	988.752 ± 0.24	984.639 ± 0.24	1594 ± 2.4	1569.8 ± 2.4	1550.6 ± 2.4

[2]
Conditions	excess molar enthalpy [kcal/mol]
x2 = 0.0426	-0.0583 ± 0.00263
x2 = 0.0815	-0.106 ± 0.00454
x2 = 0.1339	-0.166 ± 0.00693
x2 = 0.1824	-0.211 ± 0.0086
x2 = 0.2243	-0.246 ± 0.01
x2 = 0.2715	-0.282 ± 0.0115
x2 = 0.3196	-0.305 ± 0.0124
x2 = 0.3825	-0.332 ± 0.0136
x2 = 0.4238	-0.341 ± 0.0139
x2 = 0.4783	-0.342 ± 0.0139
x2 = 0.5362	-0.338 ± 0.0139
x2 = 0.5915	-0.322 ± 0.0131
x2 = 0.6426	-0.303 ± 0.0124
x2 = 0.7121	-0.261 ± 0.0108
x2 = 0.7827	-0.212 ± 0.0086
x2 = 0.8211	-0.178 ± 0.00741
x2 = 0.8916	-0.114 ± 0.00478
x2 = 0.9672	-0.0361 ± 0.00182
